In patent publication US8329717B2, “Pyrimidine derivatives and their use for controlling undesired plant growth” (Bayer Cropscience AG, priority 2008, dated 2012):

Columns and labels:
[1] = logp (HCOOH), chemicophysical data; settings: for chromatographic logP: HCOOH (formic acid)
Abutilon theophrasti [2] = test: Pre-emergence herbicidal effect; format: in vivo; settings: Dosage 320 g/ha, visual scoring after 3 weeks vs untreated controls, 100% = plants have died
Procedure, shortened: (§1)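 Seeds in sandy loam; WP or EC formulations sprayed onto covering soil at 600 to 800 l/ha water with 0.2% wetting agent, dosage in g/ha. Greenhouse-grown, visually scored at 3 weeks against untreated controls (100% = dead, 0% = as control).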

Alopecurus myosuroides [3] = test: Pre-emergence herbicidal effect; format: in vivo; settings: Dosage 320 g/ha, visual scoring after 3 weeks vs untreated controls, 100% = plants have died
Procedure, shortened: as §1

Amaranthus retroflexus [4] = test: Pre-emergence herbicidal effect; format: in vivo; settings: Dosage 320 g/ha, visual scoring after 3 weeks vs untreated controls, 100% = plants have died
Procedure, shortened: as §1

Avena fatua [5] = test: Pre-emergence herbicidal effect; format: in vivo; settings: Dosage 320 g/ha, visual scoring after 3 weeks vs untreated controls, 100% = plants have died
Procedure, shortened: as §1

Cyperus esculentus = test: Pre-emergence herbicidal effect; format: in vivo; settings: Dosage 320 g/ha, visual scoring after 3 weeks vs untreated controls, 100% = plants have died
Procedure, shortened: as §1

Echinochloa crus-galli [6] = test: Pre-emergence herbicidal effect; format: in vivo; settings: Dosage 320 g/ha, visual scoring after 3 weeks vs untreated controls, 100% = plants have died
Procedure, shortened: as §1

Lolium multiflorum [7] = test: Pre-emergence herbicidal effect; format: in vivo; settings: Dosage 320 g/ha, visual scoring after 3 weeks vs untreated controls, 100% = plants have died
Procedure, shortened: as §1

Matricaria inodora [8] = test: Pre-emergence herbicidal effect; format: in vivo; settings: Dosage 320 g/ha, visual scoring after 3 weeks vs untreated controls, 100% = plants have died
Procedure, shortened: as §1

Polygonum convolvulus [9] = test: Pre-emergence herbicidal effect; format: in vivo; settings: Dosage 320 g/ha, visual scoring after 3 weeks vs untreated controls, 100% = plants have died
Procedure, shortened: as §1

Setaria viridis [10] = test: Pre-emergence herbicidal effect; format: in vivo; settings: Dosage 320 g/ha, visual scoring after 3 weeks vs untreated controls, 100% = plants have died
Procedure, shortened: as §1

Stellaria media [11] = test: Pre-emergence herbicidal effect; format: in vivo; settings: Dosage 320 g/ha, visual scoring after 3 weeks vs untreated controls, 100% = plants have died
Procedure, shortened: as §1

Veronica persica [12] = test: Pre-emergence herbicidal effect; format: in vivo; settings: Dosage 320 g/ha, visual scoring after 3 weeks vs untreated controls, 100% = plants have died
Procedure, shortened: as §1

Viola tricolor [13] = test: Pre-emergence herbicidal effect; format: in vivo; settings: Dosage 320 g/ha, visual scoring after 3 weeks vs untreated controls, 100% = plants have died
Procedure, shortened: as §1

Abutilon theophrasti [14] = test: Post-emergence herbicidal effect; format: in vivo; settings: Dosage 320 g/ha, one-leaf stage, visual scoring after ca. 3 weeks vs untreated controls, 100% = plants have died
Procedure, shortened: (§2)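 Post-emergence foliar spray; greenhouse; sandy loam pots; one-leaf stage (2–3 wk after sowing). WP or EC, aqueous, 600–800 l/ha + 0.2% wetter; rate g/ha. Read-out: visual % damage at ~3 wk vs untreated (0–100%).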

Alopecurus myosuroides [15] = test: Post-emergence herbicidal effect; format: in vivo; settings: Dosage 320 g/ha, one-leaf stage, visual scoring after ca. 3 weeks vs untreated controls, 100% = plants have died
Procedure, shortened: as §2

Amaranthus retroflexus [16] = test: Post-emergence herbicidal effect; format: in vivo; settings: Dosage 320 g/ha, one-leaf stage, visual scoring after ca. 3 weeks vs untreated controls, 100% = plants have died
Procedure, shortened: as §2

Avena fatua [17] = test: Post-emergence herbicidal effect; format: in vivo; settings: Dosage 320 g/ha, one-leaf stage, visual scoring after ca. 3 weeks vs untreated controls, 100% = plants have died
Procedure, shortened: as §2

Echinochloa crus-galli [18] = test: Post-emergence herbicidal effect; format: in vivo; settings: Dosage 320 g/ha, one-leaf stage, visual scoring after ca. 3 weeks vs untreated controls, 100% = plants have died
Procedure, shortened: as §2

Lolium multiflorum [19] = test: Post-emergence herbicidal effect; format: in vivo; settings: Dosage 320 g/ha, one-leaf stage, visual scoring after ca. 3 weeks vs untreated controls, 100% = plants have died
Procedure, shortened: as §2

Polygonum convolvulus [20] = test: Post-emergence herbicidal effect; format: in vivo; settings: Dosage 320 g/ha, one-leaf stage, visual scoring after ca. 3 weeks vs untreated controls, 100% = plants have died
Procedure, shortened: as §2

Setaria viridis [21] = test: Post-emergence herbicidal effect; format: in vivo; settings: Dosage 320 g/ha, one-leaf stage, visual scoring after ca. 3 weeks vs untreated controls, 100% = plants have died
Procedure, shortened: as §2

Stellaria media [22] = test: Post-emergence herbicidal effect; format: in vivo; settings: Dosage 320 g/ha, one-leaf stage, visual scoring after ca. 3 weeks vs untreated controls, 100% = plants have died
Procedure, shortened: as §2

Veronica persica [23] = test: Post-emergence herbicidal effect; format: in vivo; settings: Dosage 320 g/ha, one-leaf stage, visual scoring after ca. 3 weeks vs untreated controls, 100% = plants have died
Procedure, shortened: as §2

Viola tricolor [24] = test: Post-emergence herbicidal effect; format: in vivo; settings: Dosage 320 g/ha, one-leaf stage, visual scoring after ca. 3 weeks vs untreated controls, 100% = plants have died
Procedure, shortened: as §2

PHBPU = test: Post-emergence herbicidal effect; format: in vivo; settings: Dosage 320 g/ha, one-leaf stage, visual scoring after ca. 3 weeks vs untreated controls, 100% = plants have died
Procedure, shortened: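 Effect is rated visually as percent versus untreated plants (0% = like controls, 100% = plants died) about 3 weeks post-treatment. Plants at the one-leaf stage, 2 to 3 weeks from sowing in sandy loam, received spray of wettable powder or emulsion concentrate in 600 to 800 l/ha water plus 0.2% wetting agent, dosed in g/ha.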

Matricaria inodora [25] = test: Post-emergence herbicidal effect; format: in vivo; settings: Dosage 320 g/ha, one-leaf stage, visual scoring after ca. 3 weeks vs untreated controls, 100% = plants have died
Procedure, shortened: as §2

| SMILES | Pre-emergence herbicidal effect ABUTH (Abutilon theophrasti [2]) | Pre-emergence herbicidal effect ALOMY (Alopecurus myosuroides [3]) | Pre-emergence herbicidal effect AMARE (Amaranthus retroflexus [4]) | Pre-emergence herbicidal effect AVEFA (Avena fatua [5]) | Pre-emergence herbicidal effect CYPES (Cyperus esculentus) | Pre-emergence herbicidal effect ECHCG (Echinochloa crus-galli [6]) | Pre-emergence herbicidal effect LOLMU (Lolium multiflorum [7]) | Pre-emergence herbicidal effect MATIN (Matricaria inodora [8]) | Pre-emergence herbicidal effect SETVI (Setaria viridis [10]) | Pre-emergence herbicidal effect STEME (Stellaria media [11]) | Pre-emergence herbicidal effect VERPE (Veronica persica [12]) | Post-emergence herbicidal effect ABUTH (Abutilon theophrasti [14]) | Post-emergence herbicidal effect ALOMY (Alopecurus myosuroides [15]) | Post-emergence herbicidal effect AMARE (Amaranthus retroflexus [16]) | Post-emergence herbicidal effect AVEFA (Avena fatua [17]) | Post-emergence herbicidal effect ECHCG (Echinochloa crus-galli [18]) | Post-emergence herbicidal effect LOLMU (Lolium multiflorum [19]) | Post-emergence herbicidal effect POLCO (Polygonum convolvulus [20]) | Post-emergence herbicidal effect SETVI (Setaria viridis [21]) | Post-emergence herbicidal effect STEME (Stellaria media [22]) | also measured |
| --- | --- | --- | --- | --- | --- | --- | --- | --- | --- | --- | --- | --- | --- | --- | --- | --- | --- | --- | --- | --- | --- |
| Cc1ccc2c(c1)[C@H](Nc1nc(N)c(C#N)c(-c3ccccc3F)n1)[C@@H](C)C2 [Example 1.104, 4-Amino-2-{[(1R,2S)-2,6-dimethyl-2,3-dihydro-1H-inden-1-yl]amino}-6-(2-fluorophenyl)pyrimidine-5-carbonitrile] | – | – | – | – | – | – | – | – | – | – | – | – | – | – | – | – | – | – | – | – | melting point: 67 to 68 °C; chromatographic logP [1]: 3.65 |
| C#Cc1cnc(N[C@H]2c3cc(C)ccc3C[C@@H]2C)nc1N [Example 1.119, N2-[(1R,2S)-2,6-Dimethyl-2,3-dihydro-1H-inden-1-yl]-5-ethynylpyrimidine-2,4-diamine] | – | – | – | – | – | – | – | – | – | – | – | – | – | – | – | – | – | – | – | – | melting point: 99 °C; chromatographic logP [1]: 1.43 |
| CC[C@H]1Cc2ccccc2[C@@H]1Nc1ncc(C#N)c(N)n1 [Example 1.129] | 80% | 100% | 100% | 90% | 80% | 100% | 100% | 100% | 100% | 100% | 100% | 90% | 90% | 90% | 80% | 100% | 90% | 90% | 90% | 90% | Pre-emergence herbicidal effect POLCO (Polygonum convolvulus [9]): 100%; Pre-emergence herbicidal effect VIOTR (Viola tricolor [13]): 100%; Post-emergence herbicidal effect VERPE (Veronica persica [23]): 90%; Post-emergence herbicidal effect VIOTR (Viola tricolor [24]): 80% |
| Cc1ccc2c(c1)[C@H](Nc1ncc(C#N)c(N)n1)[C@@H](C)C2 [Example 1.35] | 100% | 100% | 100% | 100% | 100% | 100% | 100% | 100% | 100% | 100% | 100% | 95% | 100% | 93% | 95% | 100% | 90% | 90% | 95% | 95% | Pre-emergence herbicidal effect POLCO (Polygonum convolvulus [9]): 100%; Pre-emergence herbicidal effect VIOTR (Viola tricolor [13]): 100%; Post-emergence herbicidal effect PHBPU (PHBPU): 90%; Post-emergence herbicidal effect MATIN (Matricaria inodora [25]): 85%; Post-emergence herbicidal effect VERPE (Veronica persica [23]): 95%; Post-emergence herbicidal effect VIOTR (Viola tricolor [24]): 90%; logp (HCOOH) [1]: wax-like; logp (HCOOH): 2.35; 1H-NMR (CDCl3, 400 MHZ, δ in ppm): 1.25 (d, 3H, CH3); |
| Cc1ccc2c(c1)[C@H](Nc1nc(C)c(C#N)c(N)n1)[C@@H](C)C2 [Example 1.17] | 100% | 100% | 100% | 90% | 90% | 100% | 100% | 100% | 100% | 100% | 100% | 87% | 90% | 97% | 80% | 93% | 93% | 80% | 90% | 97% | Post-emergence herbicidal effect PHBPU (PHBPU): 90%; Post-emergence herbicidal effect MATIN (Matricaria inodora [25]): 85%; Post-emergence herbicidal effect VERPE (Veronica persica [23]): 87%; Post-emergence herbicidal effect VIOTR (Viola tricolor [24]): 90%; logp (HCOOH) [1]: solid, m.p.: 166.4° C.; logp (HCOOH): 2.40; 1H-NMR (CDCl3, 400 MHZ, δ in ppm): 1.25 |
| Cc1ccc2c(c1)[C@H](Nc1ncc(Cl)c(N)n1)[C@@H](C)C2 [Example 1.105] | 100% | 100% | 100% | 80% | 100% | 100% | 100% | 100% | 100% | 100% | 100% | 90% | 80% | 90% | 90% | 100% | 90% | 80% | 90% | 90% | Pre-emergence herbicidal effect POLCO (Polygonum convolvulus [9]): 100%; Pre-emergence herbicidal effect VIOTR (Viola tricolor [13]): 100%; Post-emergence herbicidal effect PHBPU (PHBPU): 90%; Post-emergence herbicidal effect MATIN (Matricaria inodora [25]): 90%; Post-emergence herbicidal effect VIOTR (Viola tricolor [24]): 80%; logp (HCOOH) [1]: wax-like; logp (HCOOH): 1.27; 1H-NMR (CDCl3, 400 MHZ, δ in ppm): 1.30 (d, 3H, CH3); |
| Nc1nc(N[C@@H]2CCCc3ccccc32)ncc1C(F)(F)F [Example 1.108, N2-[(1R)-1,2,3,4-Tetrahydronaphthalen-1-yl]-5-(trifluoromethyl)pyrimidine-2,4-diamine] | – | – | – | – | – | – | – | – | – | – | – | – | – | – | – | – | – | – | – | – | melting point: 130.8 °C; chromatographic logP [1]: 1.64 |
